# ChEMBL document CHEMBL3868641, “Discovery, characterization and biological evaluation of a novel (R)-4,4-difluoropiperidine scaffold as dopamine receptor 4 (D4R) antagonists” (Bioorg Med Chem Lett, 2016)
# What was measured:
# [1] = Displacement of [3H]Spiperone from recombinant human Dopamine D4.4 receptor expressed in CHO-K1 cell membranes after 120 mins
# [2] = Displacement of [3H]Spiperone from recombinant human Dopamine D4.4 receptor expressed in CHO-K1 cell membranes at 10 uM after 120 mins relative to control
# [3] = target: D(1B) dopamine receptor (Homo sapiens) (UniProt P21918); experiment: Displacement of [3H]SCH-23390 from recombinant human Dopamine D5 receptor expressed in CHO cell membranes at 10 uM after 120 mins relative to control
# [4] = target: D(2) dopamine receptor (Homo sapiens) (UniProt P14416); experiment: Displacement of [3H]Spiperone from recombinant human Dopamine D2S receptor expressed in CHO cell membranes at 10 uM after 120 mins relative to control
# [5] = target: D(1A) dopamine receptor (Homo sapiens) (UniProt P21728); experiment: Displacement of [3H]SCH-23390 from recombinant human Dopamine D1 receptor expressed in CHO cell membranes at 10 uM after 120 mins relative to control
# [6] = target: D(2) dopamine receptor (Homo sapiens) (UniProt P14416); experiment: Displacement of [3H]Spiperone from recombinant human Dopamine D2L receptor expressed in CHO cell membranes at 10 uM after 120 mins relative to control
# [7] = target: D(3) dopamine receptor (Homo sapiens) (UniProt P35462); experiment: Displacement of [3H]Spiperone from recombinant human Dopamine D3 receptor expressed in CHO cell membranes at 10 uM after 120 mins relative to control
# Chain of D(3) dopamine receptor (Homo sapiens) (P35462 whole entry): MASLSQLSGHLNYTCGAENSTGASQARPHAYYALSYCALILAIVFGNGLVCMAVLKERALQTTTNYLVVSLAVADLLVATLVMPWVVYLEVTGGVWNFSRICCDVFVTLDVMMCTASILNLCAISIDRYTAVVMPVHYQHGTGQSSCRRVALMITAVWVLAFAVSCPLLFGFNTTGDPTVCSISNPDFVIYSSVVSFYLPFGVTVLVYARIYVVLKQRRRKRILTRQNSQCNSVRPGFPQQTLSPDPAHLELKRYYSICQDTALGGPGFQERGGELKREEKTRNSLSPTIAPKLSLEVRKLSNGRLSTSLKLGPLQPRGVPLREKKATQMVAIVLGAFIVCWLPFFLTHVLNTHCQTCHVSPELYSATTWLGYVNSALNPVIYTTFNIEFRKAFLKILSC
# Chain of D(1B) dopamine receptor (Homo sapiens) (P21918 whole entry): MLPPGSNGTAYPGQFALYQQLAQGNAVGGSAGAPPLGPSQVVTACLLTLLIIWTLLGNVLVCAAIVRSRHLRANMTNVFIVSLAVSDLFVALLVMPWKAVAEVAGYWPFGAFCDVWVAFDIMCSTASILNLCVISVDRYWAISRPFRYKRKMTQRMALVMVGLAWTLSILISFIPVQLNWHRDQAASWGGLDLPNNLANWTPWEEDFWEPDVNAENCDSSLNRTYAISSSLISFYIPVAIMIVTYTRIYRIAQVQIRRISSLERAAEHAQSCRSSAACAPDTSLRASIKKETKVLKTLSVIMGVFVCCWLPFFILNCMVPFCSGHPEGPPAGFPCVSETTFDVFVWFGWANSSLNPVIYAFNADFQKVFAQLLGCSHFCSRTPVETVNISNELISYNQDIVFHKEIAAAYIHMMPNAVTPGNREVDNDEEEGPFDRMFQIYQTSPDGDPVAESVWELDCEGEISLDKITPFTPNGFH
# Chain of D(1A) dopamine receptor (Homo sapiens) (P21728 whole entry): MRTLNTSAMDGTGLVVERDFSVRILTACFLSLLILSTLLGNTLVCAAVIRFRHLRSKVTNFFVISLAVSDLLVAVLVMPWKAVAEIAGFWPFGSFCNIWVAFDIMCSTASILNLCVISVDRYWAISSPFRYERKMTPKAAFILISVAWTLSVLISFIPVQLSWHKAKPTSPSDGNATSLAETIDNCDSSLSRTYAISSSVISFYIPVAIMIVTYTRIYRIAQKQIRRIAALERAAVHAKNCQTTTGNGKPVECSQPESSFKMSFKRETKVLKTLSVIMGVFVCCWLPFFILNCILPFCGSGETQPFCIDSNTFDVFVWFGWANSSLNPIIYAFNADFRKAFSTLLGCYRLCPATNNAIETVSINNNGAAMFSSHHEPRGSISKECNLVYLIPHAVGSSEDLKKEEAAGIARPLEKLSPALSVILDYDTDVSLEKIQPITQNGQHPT
# Chain of D(2) dopamine receptor (Homo sapiens) (P14416 whole entry): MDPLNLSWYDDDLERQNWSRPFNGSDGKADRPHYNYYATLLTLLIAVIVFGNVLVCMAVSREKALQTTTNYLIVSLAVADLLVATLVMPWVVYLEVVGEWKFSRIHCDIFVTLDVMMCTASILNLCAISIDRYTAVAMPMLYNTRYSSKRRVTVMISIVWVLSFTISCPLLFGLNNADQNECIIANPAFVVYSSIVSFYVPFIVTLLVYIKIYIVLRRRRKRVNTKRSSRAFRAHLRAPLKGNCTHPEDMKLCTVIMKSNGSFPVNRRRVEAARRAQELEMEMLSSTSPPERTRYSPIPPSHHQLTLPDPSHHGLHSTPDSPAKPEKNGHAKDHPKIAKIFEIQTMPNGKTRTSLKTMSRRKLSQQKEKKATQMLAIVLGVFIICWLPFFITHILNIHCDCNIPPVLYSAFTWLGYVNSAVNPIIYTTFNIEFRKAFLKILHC
IC50 [1],Compound,Ki [1],inhibition [2],also measured
5.99 µM,Fc1ccccc1CC[C@H]1CN(Cc2c[nH]c3cc(Cl)ccc23)CCC1(F)F,1.66 µM,59%,
3.2 µM,Fc1ccc(CC[C@H]2CN(Cc3c[nH]c4cc(Cl)ccc34)CCC2(F)F)cc1,0.89 µM,73%,
> 10 µM,Cc1ccc(CN2CCC(F)(F)[C@@H](CCc3ccccc3)C2)cc1C,,,
1.36 µM,FC1(F)CCN(Cc2ccc3ncccc3c2)CC1CCc1ccccc1 (racemic),0.38 µM,87%,
0.3 µM,Cc1ccc(CN2CCC(F)(F)C(CCc3ccccc3)C2)cc1C (racemic),0.082 µM,85%,inhibition [3]: < 20%; inhibition [4]: < 20%; inhibition [5]: < 20%; inhibition [6]: < 20%; inhibition [7]: < 20%
0.021 µM,COc1ccc2c(CN3CCC(F)(F)C(CCc4ccccc4F)C3)c[nH]c2c1 (racemic),0.0059 µM,95%,inhibition [3]: < 50%; inhibition [4]: 66%; inhibition [5]: < 50%; inhibition [6]: < 50%; inhibition [7]: 80%
0.035 µM,Fc1ccc(CCC2CN(Cc3ncn4ccccc34)CCC2(F)F)cc1 (racemic),0.0097 µM,97%,inhibition [3]: < 50%; inhibition [4]: < 50%; inhibition [5]: < 50%; inhibition [6]: < 50%; inhibition [7]: < 50%
0.23 µM,COc1ccccc1CCC1CN(Cc2c[nH]c3cc(Cl)ccc23)CCC1(F)F (racemic),0.064 µM,94%,
0.64 µM,COc1ccc(CCC2CN(Cc3c[nH]c4cc(Cl)ccc34)CCC2(F)F)cc1 (racemic),0.18 µM,88%,
0.16 µM,Fc1cccc(CCC2CN(Cc3c[nH]c4cc(Cl)ccc34)CCC2(F)F)c1 (racemic),0.044 µM,94%,
0.025 µM,Fc1ccc(CCC2CN(Cc3c[nH]c4cc(F)ccc34)CCC2(F)F)cc1 (racemic),0.007 µM,94%,
0.098 µM,Fc1ccccc1CCC1CN(Cc2ccc(Cl)cc2)CCC1(F)F (racemic),0.027 µM,92%,
0.51 µM,CSc1ccc(CN2CCC(F)(F)C(CCc3ccccc3)C2)cc1 (racemic),0.14 µM,93%,
0.79 µM,FC1(F)CCN(Cc2ccc3ccccc3c2)CC1CCc1ccccc1 (racemic),0.22 µM,80%,
0.031 µM,Fc1ccc2c(CN3CCC(F)(F)C(CCc4ccccc4F)C3)c[nH]c2c1 (racemic),0.0086 µM,95%,
0.76 µM,FC1(F)CCN(Cc2ccc(Cl)cc2)CC1CCc1ccccc1 (racemic),0.21 µM,80%,
0.055 µM,Fc1ccccc1CCC1CN(Cc2c[nH]c3cc(Cl)ccc23)CCC1(F)F (racemic),0.0153 µM,96%,inhibition [3]: < 50%; inhibition [4]: 57%; inhibition [5]: < 50%; inhibition [6]: < 50%; inhibition [7]: 69%
0.48 µM,COc1ccc(CCC2CN(Cc3c[nH]c4cc(F)ccc34)CCC2(F)F)cc1 (racemic),0.13 µM,91%,
0.11 µM,COc1ccc(CN2CCC(F)(F)C(CCc3ccccc3)C2)cc1F (racemic),0.031 µM,88%,
0.065 µM,Fc1ccc(CCC2CN(Cc3ccc(Cl)cc3)CCC2(F)F)cc1 (racemic),0.0179 µM,95%,
0.43 µM,COc1ccc(CN2CCC(F)(F)C(CCc3ccccc3)C2)cc1 (racemic),0.12 µM,87%,
0.15 µM,Fc1ccccc1CCC1CN(Cc2ncn3ccccc23)CCC1(F)F (racemic),0.042 µM,92%,
0.17 µM,COc1ccccc1CCC1CN(Cc2c[nH]c3cc(F)ccc23)CCC1(F)F (racemic),0.048 µM,94%,
0.3 µM,FC1(F)CCN(Cc2cccc3cc[nH]c23)CC1CCc1ccccc1 (racemic),0.084 µM,88%,
0.23 µM,COc1ccccc1CCC1CN(Cc2ccc(Cl)cc2)CCC1(F)F (racemic),0.063 µM,75%,

# Continued, molecule first:
Compound,IC50 [1],Ki [1],inhibition [2],also measured
Clc1ccc(CN2CCO[C@H](CCc3ccccc3)C2)cc1,0.13 µM,0.036 µM,,
COc1ccc(CN2CCO[C@H](COc3ccccc3)C2)cc1F,0.056 µM,0.0143 µM,,
COc1ccc2cc(CN3CCC(F)(F)[C@@H](CCc4ccccc4)C3)c(OC)nc2c1,,,25%,
FC1(F)CCN(Cc2c[nH]c3cc(Cl)ccc23)C[C@@H]1CCc1ccccc1,,,58%,
Fc1ccc2c(CN3CCC(F)(F)[C@@H](CCc4ccccc4)C3)c[nH]c2c1,,,64%,
COc1cccc(CCC2CN(Cc3c[nH]c4cc(F)ccc34)CCC2(F)F)c1 (racemic),1.54 µM,0.43 µM,88%,
COc1ccc2c(CN3CCC(F)(F)C(CCc4cccc(F)c4)C3)c[nH]c2c1 (racemic),0.045 µM,0.0125 µM,93%,
Fc1cccc(CCC2CN(Cc3c[nH]c4cc(F)ccc34)CCC2(F)F)c1 (racemic),0.077 µM,0.021 µM,92%,inhibition [3]: < 50%; inhibition [4]: < 50%; inhibition [5]: < 50%; inhibition [6]: < 50%; inhibition [7]: < 50%
COc1cccc(CCC2CN(Cc3c[nH]c4cc(OC)ccc34)CCC2(F)F)c1 (racemic),0.55 µM,0.15 µM,89%,
COc1ccc2c(CN3CCC(F)(F)C(CCc4ccc(F)cc4)C3)c[nH]c2c1 (racemic),0.037 µM,0.0103 µM,96%,
COc1ccc2c(CN3CCC(F)(F)C(CCc4ccccc4OC)C3)c[nH]c2c1 (racemic),0.37 µM,0.1 µM,76%,
COc1ccc(CCC2CN(Cc3c[nH]c4cc(OC)ccc34)CCC2(F)F)cc1 (racemic),0.43 µM,0.12 µM,93%,
FC1(F)CCN(Cc2ncn3ccccc23)CC1CCc1ccccc1 (racemic),0.12 µM,0.034 µM,90%,inhibition [3]: < 50%; inhibition [4]: < 50%; inhibition [5]: < 50%; inhibition [6]: < 50%; inhibition [7]: < 50%
COc1ccc2[nH]cc(CN3CCC(F)(F)C(CCc4ccccc4)C3)c2c1 (racemic),0.72 µM,0.2 µM,91%,inhibition [3]: < 50%; inhibition [4]: 52%; inhibition [5]: < 50%; inhibition [6]: < 50%; inhibition [7]: < 50%
CCOc1ccccc1CN1CCC(F)(F)C(CCc2ccccc2)C1 (racemic),,,49%,
COc1ccc(CN2CCC(F)(F)C(CCc3ccccc3)C2)cc1OC (racemic),,,77%,
COc1cccc(CCC2CN(Cc3ccc(Cl)cc3)CCC2(F)F)c1 (racemic),,,67%,
COc1cccc(CCC2CN(Cc3ncn4ccccc34)CCC2(F)F)c1 (racemic),,,66%,
COc1cccc2ccc(CN3CCC(F)(F)C(CCc4ccccc4)C3)nc12 (racemic),,,54%,
COc1ccccc1CCC1CN(Cc2c[nH]c3cccc(F)c23)CCC1(F)F (racemic),,,3%,

Compound,IC50 [1],Ki [1],inhibition [2],also measured
FC(F)(F)Oc1ccc(CN2CCC(F)(F)C(CCc3ccccc3)C2)cc1 (racemic),,,70%,
FC(F)(F)c1cc(CN2CCC(F)(F)C(CCc3ccccc3)C2)cc(C(F)(F)F)c1 (racemic),,,0%,
FC(F)(F)c1ccc(CN2CCC(F)(F)C(CCc3ccccc3)C2)cc1 (racemic),,,79%,
FC(F)(F)c1cccc(CN2CCC(F)(F)C(CCc3ccccc3)C2)c1 (racemic),,,48%,
FC1(F)CCN(Cc2cc3ccccc3s2)CC1CCc1ccccc1 (racemic),,,51%,
FC1(F)CCN(Cc2ccc3[nH]ncc3c2)CC1CCc1ccccc1 (racemic),,,68%,
FC1(F)CCN(Cc2ccc3ccccc3n2)CC1CCc1ccccc1 (racemic),,,70%,
FC1(F)CCN(Cc2cccc(Cl)c2)CC1CCc1ccccc1 (racemic),,,55%,
FC1(F)CCN(Cc2cccc3c2OCO3)CC1CCc1ccccc1 (racemic),,,18%,
FC1(F)CCN(Cc2nc3cc(Cl)ccc3cc2Cl)CC1CCc1ccccc1 (racemic),,,16%,
Fc1ccc(CN2CCC(F)(F)C(CCc3ccccc3)C2)c(Cl)c1 (racemic),,,6%,
Fc1ccc2nc(CN3CCC(F)(F)C(CCc4ccccc4)C3)ccc2c1 (racemic),,,66%,
Fc1cccc(CCC2CN(Cc3c[nH]c4cccc(F)c34)CCC2(F)F)c1 (racemic),,,59%,
Fc1cccc(CCC2CN(Cc3ncn4ccccc34)CCC2(F)F)c1 (racemic),,,78%,
Fc1cccc(Cl)c1CN1CCC(F)(F)C(CCc2ccccc2)C1 (racemic),,,10%,
Fc1cccc2ccc(CN3CCC(F)(F)C(CCc4ccccc4)C3)nc12 (racemic),,,69%,
Fc1ccccc1CCC1CN(Cc2c[nH]c3cccc(F)c23)CCC1(F)F (racemic),,,62%,
N#Cc1cc(CN2CCC(F)(F)C(CCc3ccccc3)C2)ccc1F (racemic),,,66%,
N#Cc1ccccc1CN1CCC(F)(F)C(CCc2ccccc2)C1 (racemic),,,10%,
